The values that follow come from PMC6556873, “Rapid Covalent-Probe Discovery by Electrophile-Fragment Screening” (Journal of the American Chemical Society, 2019).

The target of one data set is T1, BSA (Bos taurus, UniProt P02769).
T1 construct: gene ALB
More on the design: Intact protein LC/MS covalent labelling, fragments in pools of five, 200 uM each, 4 °C. Particulars: 24 h, 4 °C, pool of five; 200 µM; covalent.

The next data set addresses T2, NUDT7 (Homo sapiens, UniProt P0C024).
T2 construct: residues 14-235, E. coli, pNIC28-Bsa4, N-terminal His6 tag removed by TEV, construct 26672 Da
More on the design: Intact protein LC/MS covalent labelling, fragments in pools of five, 200 uM each, 4 °C. The conditions noted are these: 24 h, 4 °C, pool of five; 200 µM; covalent.

The next data set deals with T3, OTUB2 (OTUB2A) (Homo sapiens, UniProt Q96DC9).
T3 construct: full length residues 1-234, E. coli BL21(DE3)-R3, His tag removed by TEV, construct 27312 Da
T3 sequence (Q96DC9 1-234): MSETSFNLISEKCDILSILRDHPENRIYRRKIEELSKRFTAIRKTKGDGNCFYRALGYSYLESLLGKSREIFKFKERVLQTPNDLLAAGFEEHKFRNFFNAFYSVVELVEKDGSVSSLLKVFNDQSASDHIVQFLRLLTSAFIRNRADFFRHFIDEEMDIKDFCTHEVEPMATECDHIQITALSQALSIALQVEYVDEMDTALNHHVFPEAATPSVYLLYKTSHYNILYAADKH
On the set-up: Intact protein LC/MS covalent labelling, fragments in pools of five, 200 uM each, 4 °C. Particulars: 24 h, 4 °C, pool of five; 200 µM; covalent.

A further data set has as its target T4, PCAF (Homo sapiens, UniProt Q92831).
T4 construct: gene KAT2B
On the set-up: Intact protein LC/MS covalent labelling, fragments in pools of five, 200 uM each, 4 °C. Particulars: 24 h, 4 °C, pool of five; 200 µM; covalent.

Data set [1] in a line: in vitro. More on the design: species or system CCD841, HEK293. Particulars: human, hb2 cells, read-out: HB-2 Cells Viability (%).
Data set [2] can be described thus: in vitro. The conditions noted are these: human, ccd841 cells. More on the design: species or system HB2, HEK293.
A short description of data set [3]: in vitro. Particulars: human, hek293 cells. On the set-up: species or system HB2, CCD841.

Molecules are shown by their SMILES. Where two headings read alike, the source gives them in different places.

T2 sequence (P0C024 14-235): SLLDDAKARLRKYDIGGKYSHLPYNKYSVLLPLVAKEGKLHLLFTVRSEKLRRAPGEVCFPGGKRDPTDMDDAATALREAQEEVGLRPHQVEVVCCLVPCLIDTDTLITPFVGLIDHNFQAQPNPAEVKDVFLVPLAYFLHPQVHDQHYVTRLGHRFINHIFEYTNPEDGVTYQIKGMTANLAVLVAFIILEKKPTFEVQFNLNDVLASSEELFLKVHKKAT
T1 sequence (P02769 whole entry): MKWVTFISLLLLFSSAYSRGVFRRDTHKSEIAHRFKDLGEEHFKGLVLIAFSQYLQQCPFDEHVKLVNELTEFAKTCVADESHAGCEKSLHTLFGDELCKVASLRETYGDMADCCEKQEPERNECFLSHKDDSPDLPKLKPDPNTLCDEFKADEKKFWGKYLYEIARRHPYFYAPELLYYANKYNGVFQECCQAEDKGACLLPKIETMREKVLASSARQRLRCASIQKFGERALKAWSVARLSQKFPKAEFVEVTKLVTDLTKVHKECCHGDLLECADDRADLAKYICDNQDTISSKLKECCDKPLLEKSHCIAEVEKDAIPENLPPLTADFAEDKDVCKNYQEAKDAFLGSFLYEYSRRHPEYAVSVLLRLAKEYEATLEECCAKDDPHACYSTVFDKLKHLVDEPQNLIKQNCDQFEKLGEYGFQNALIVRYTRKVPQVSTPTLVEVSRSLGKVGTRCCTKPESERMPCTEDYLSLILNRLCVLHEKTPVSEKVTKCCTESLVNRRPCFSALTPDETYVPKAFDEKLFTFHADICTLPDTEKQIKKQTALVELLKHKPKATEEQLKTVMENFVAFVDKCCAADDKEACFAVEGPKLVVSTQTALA
T4 sequence (Q92831 whole entry): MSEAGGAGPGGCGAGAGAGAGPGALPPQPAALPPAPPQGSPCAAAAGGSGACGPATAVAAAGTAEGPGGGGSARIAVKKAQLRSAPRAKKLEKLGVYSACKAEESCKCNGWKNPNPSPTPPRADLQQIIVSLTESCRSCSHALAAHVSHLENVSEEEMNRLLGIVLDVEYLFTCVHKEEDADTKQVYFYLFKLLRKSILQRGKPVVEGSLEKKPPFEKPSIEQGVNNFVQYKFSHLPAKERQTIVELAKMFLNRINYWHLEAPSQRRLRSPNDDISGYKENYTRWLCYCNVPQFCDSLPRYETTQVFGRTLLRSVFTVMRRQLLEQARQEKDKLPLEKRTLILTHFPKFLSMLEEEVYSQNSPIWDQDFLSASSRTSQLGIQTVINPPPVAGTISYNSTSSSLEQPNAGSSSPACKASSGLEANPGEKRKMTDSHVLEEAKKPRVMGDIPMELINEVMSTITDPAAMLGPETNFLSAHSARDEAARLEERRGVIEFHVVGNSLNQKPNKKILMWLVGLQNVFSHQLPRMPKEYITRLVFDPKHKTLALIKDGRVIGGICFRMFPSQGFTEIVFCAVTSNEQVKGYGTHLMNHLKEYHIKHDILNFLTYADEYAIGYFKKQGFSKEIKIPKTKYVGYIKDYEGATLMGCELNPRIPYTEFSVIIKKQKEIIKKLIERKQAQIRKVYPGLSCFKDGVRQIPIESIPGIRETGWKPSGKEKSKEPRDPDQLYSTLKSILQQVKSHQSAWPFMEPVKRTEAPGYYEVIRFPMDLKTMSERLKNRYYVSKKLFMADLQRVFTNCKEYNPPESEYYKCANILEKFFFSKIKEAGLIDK

At BSA, `CC(=O)c1ccc(N2CCN(C(=O)CCl)CC2)c(F)c1` [PCM-0102273] yielded a BSA of 0. The same molecule yielded an NUDT7 at NUDT7 of 0.2. In addition, the OTUB2 on OTUB2 (OTUB2A) was 0. The molecule also yielded a PCAF at PCAF of 0. The results for the viability at 48 h, 10 µM in “in vitro [1]”, in “in vitro [2]” and in the data set “in vitro [3]” were 4.9%, 38.5% and 2.2%, respectively.

`CC(NC(=O)CCl)c1cccc2ccccc12` (centres unmarked) [PCM-0102275] registered a BSA on BSA of 0. Besides, the NUDT7 at NUDT7 is 0.32. Besides, the OTUB2 at OTUB2 (OTUB2A) worked out at 0.73. Moreover, the PCAF at PCAF is 0. Besides, the viability at 48 h, 10 µM in “in vitro [1]” worked out at 61.6%; in the data set “in vitro [2]”, 70.5%; in the data set “in vitro [3]”, 47.3%.

In turn, `O=C(CCl)Nc1ccc(OC(F)(F)F)cc1` [PCM-0102276] gave a BSA at BSA of 0. This molecule yielded an NUDT7 at NUDT7 of 0.24. The molecule further registered an OTUB2 at OTUB2 (OTUB2A) of 0.36. On PCAF, this molecule returned a PCAF of 0. Further, the viability at 48 h, 10 µM was 13.3% in the data set “in vitro [1]”, 64.9% in “in vitro [2]” and 9.2% in “in vitro [3]”.

On BSA, `O=C(CCl)Nc1ccc(I)cc1` [PCM-0102278] registered a BSA of 0.09. At NUDT7, this molecule yielded an NUDT7 of 0.09. Moreover, at OTUB2 (OTUB2A), the OTUB2 came out at 0.24. On PCAF, this molecule yielded a PCAF of 0. Further, the viability at 48 h, 10 µM in “in vitro [1]” worked out at 18.7%; in “in vitro [2]”, 57.1%; in the data set “in vitro [3]”, 4.9%.

As to `CNC(=O)CNC(=O)CCl` [PCM-0102279], on BSA, the BSA was determined as 0.09. At NUDT7, this molecule registered an NUDT7 of 0. For the same molecule, the OTUB2 at OTUB2 (OTUB2A) was 0.1. Also, the PCAF on PCAF is 0. Also, the values for the viability at 48 h, 10 µM in “in vitro [1]”, in “in vitro [2]” and in the data set “in vitro [3]” were 108%, 97.3% and 112%, respectively.

On BSA, `O=C(CCl)NCc1cccs1` [PCM-0102280] returned a BSA of 0. At NUDT7, this molecule returned an NUDT7 of 0. At OTUB2 (OTUB2A), the OTUB2 amounted to 0.22. On PCAF, this molecule returned a PCAF of 0. The viability at 48 h, 10 µM is 94.3% in the data set “in vitro [1]”, 81.3% in “in vitro [2]” and 82% in the data set “in vitro [3]”.

At BSA, `CC(=O)c1cccc(N2Cc3ccccc3C2=NC(=O)CCl)c1` [PCM-0102283] yielded a BSA of 0. The molecule further registered an NUDT7 on NUDT7 of 0. The OTUB2 on OTUB2 (OTUB2A) is given as 0. Also, the PCAF at PCAF is given as 0. Moreover, the figures for the viability at 48 h, 10 µM in “in vitro [1]”, in the data set “in vitro [2]” and in the data set “in vitro [3]” were 99.6%, 99.5% and 75%, respectively.

`O=C(CCl)Nc1cc(F)ccc1F` [PCM-0102284] came in with a BSA at BSA of 0. Besides, the NUDT7 on NUDT7 is 0. In addition, the OTUB2 on OTUB2 (OTUB2A) came out at 0.28. On PCAF, this molecule returned a PCAF of 0. Also, the viability at 48 h, 10 µM came out at 38.2% in the data set “in vitro [1]”, 58.8% in “in vitro [2]” and 17.7% in “in vitro [3]”.

In turn, `CN(C)S(=O)(=O)c1ccc2c(c1)CCCN2C(=O)CCl` [PCM-0102285] came in with a BSA at BSA of 0. This molecule also returned an NUDT7 at NUDT7 of 0. Further, the OTUB2 at OTUB2 (OTUB2A) is 0. This molecule displayed a PCAF at PCAF of 0. In addition, the viability at 48 h, 10 µM in the data set “in vitro [1]” worked out at 21.6%; in “in vitro [2]”, 53.5%; in “in vitro [3]”, 2.2%.

For `N#Cc1c(NC(=O)CCl)sc2c1CCCCC2` [PCM-0102286], the BSA on BSA came to 0. On NUDT7, the NUDT7 amounted to 0.33. The OTUB2 on OTUB2 (OTUB2A) worked out at 0. Also, the PCAF at PCAF is on record as 0. The figures for the viability at 48 h, 10 µM in the data set “in vitro [1]”, in the data set “in vitro [2]” and in “in vitro [3]” were 44.3%, 73.9% and 39.9%, respectively.

At BSA, `Cl.O=C(CCl)N1CCN(Cc2cccc3ccccc23)CC1` [PCM-0102287] yielded a BSA of 0. The NUDT7 on NUDT7 is 0. Besides, the OTUB2 at OTUB2 (OTUB2A) is recorded as 0.29. The molecule further registered a PCAF on PCAF of 0. For the same molecule, the viability at 48 h, 10 µM came to 9.4% in “in vitro [1]”, 21.7% in “in vitro [2]” and 19.9% in the data set “in vitro [3]”.

`O=C(CCl)Nc1cc(Cl)ccc1Cl` [PCM-0102288] showed a BSA on BSA of 0. For the same molecule, on NUDT7, the NUDT7 came out at 0.06. Further, the OTUB2 at OTUB2 (OTUB2A) is 0. Besides, the PCAF on PCAF is reported as 0. In addition, the values for the viability at 48 h, 10 µM in “in vitro [1]”, in the data set “in vitro [2]” and in “in vitro [3]” were 40.7%, 70.8% and 38.4%, respectively.

Molecule `O=C1CN(C(=O)CCl)c2ccc(C(F)(F)F)cc2N1` [PCM-0102289] returned a BSA at BSA of 0. For the same molecule, the NUDT7 on NUDT7 amounted to 0. This molecule also showed an OTUB2 on OTUB2 (OTUB2A) of 0. At PCAF, this molecule showed a PCAF of 0. The viability at 48 h, 10 µM in “in vitro [1]” turned out to be 89.3%; in the data set “in vitro [2]”, 96.4%; in the data set “in vitro [3]”, 94.7%.

Molecule `O=C(CCl)NC1CS(=O)(=O)CC1Cl` (centres unmarked) [PCM-0102291] returned a BSA at BSA of 0. The molecule further gave an NUDT7 at NUDT7 of 0.12. Moreover, on OTUB2 (OTUB2A), the OTUB2 was 0. The molecule also registered a PCAF at PCAF of 0. The viability at 48 h, 10 µM was found to be 99.6% in the data set “in vitro [1]”, 76.3% in “in vitro [2]” and 91.6% in the data set “in vitro [3]”.

`CC1CCCCC1NC(=O)NC(=O)CCl` (centres unmarked) [PCM-0102292]: the BSA on BSA is 0. This molecule also showed an NUDT7 at NUDT7 of 0. Moreover, the OTUB2 on OTUB2 (OTUB2A) came out at 0.24. The molecule further displayed a PCAF at PCAF of 0. For the same molecule, the viability at 48 h, 10 µM came out at 52.8% in the data set “in vitro [1]”, 69% in “in vitro [2]” and 48.6% in the data set “in vitro [3]”.

In the case of `O=C(CCl)Nc1nc2ccc(F)cc2s1` [PCM-0102294], at BSA, the BSA turned out to be 0. This molecule showed an NUDT7 at NUDT7 of 0.89. Moreover, the OTUB2 at OTUB2 (OTUB2A) is on record as 0. At PCAF, this molecule came in with a PCAF of 0. Further, the viability at 48 h, 10 µM in the data set “in vitro [1]” is 53%; in the data set “in vitro [2]”, 62.7%; in “in vitro [3]”, 76.7%.

Molecule `O=C(CCl)N1N=C(c2cccs2)CC1c1ccco1` (centres unmarked) [PCM-0102295] registered a BSA on BSA of 0. The NUDT7 on NUDT7 came out at 0.46. Further, the OTUB2 on OTUB2 (OTUB2A) is recorded as 0.06. The PCAF at PCAF came to 0. Further, the results for the viability at 48 h, 10 µM in “in vitro [1]”, in “in vitro [2]” and in “in vitro [3]” were 5%, 7.9% and 1.4%, respectively.

Take `Cn1nc(-c2ccc(Cl)cc2)cc1NC(=O)CCl` [PCM-0102296]: the BSA on BSA was 0. At NUDT7, this molecule displayed an NUDT7 of 0.54. This molecule yielded an OTUB2 on OTUB2 (OTUB2A) of 0.38. The molecule also returned a PCAF at PCAF of 0. Further, the viability at 48 h, 10 µM in the data set “in vitro [1]” was determined as 1.6%; in “in vitro [2]” it was 4.5%; in the data set “in vitro [3]”, 0.5%.

With `O=C(CCl)Nc1cc2c(cc1Br)OCCO2` [PCM-0102299], the BSA on BSA was 0. Also, the NUDT7 at NUDT7 is 0.27. The molecule further registered an OTUB2 on OTUB2 (OTUB2A) of 0.67. On PCAF, the PCAF was 0. Moreover, the viability at 48 h, 10 µM in “in vitro [1]” amounted to 15.8%; in “in vitro [2]”, 62.8%; in the data set “in vitro [3]” it was 12.6%.

At BSA, `CCc1cc(C(=O)NNC(=O)CCl)sc1C` [PCM-0102300] returned a BSA of 0. The molecule further displayed an NUDT7 on NUDT7 of 0.11. This molecule had an OTUB2 at OTUB2 (OTUB2A) of 0.83. The molecule further gave a PCAF on PCAF of 0. Besides, the viability at 48 h, 10 µM in the data set “in vitro [1]” amounted to 45.9%; in “in vitro [2]” it was 74.3%; in “in vitro [3]”, 75.8%.

The viability is a read-out of living cells in per cent, often relative to untreated cells.
